Assay type in all cases: biochemical
One assay deals with T1, zap70 (Homo sapiens, UniProt P43403).
T1 sequence (P43403 338-600 limits assumed): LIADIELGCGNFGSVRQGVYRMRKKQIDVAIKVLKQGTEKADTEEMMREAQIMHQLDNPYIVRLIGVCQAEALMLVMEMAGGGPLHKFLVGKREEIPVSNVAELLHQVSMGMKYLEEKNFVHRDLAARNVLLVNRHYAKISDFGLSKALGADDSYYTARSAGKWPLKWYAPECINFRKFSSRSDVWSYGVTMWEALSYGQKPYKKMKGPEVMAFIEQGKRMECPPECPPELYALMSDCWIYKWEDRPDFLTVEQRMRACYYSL
Briefly: Kinase assay (ELISA or Alphascreen), zap70. Particulars: standard conditions, read-out: zap70 inhibition of enzyme activity. How it is done: (§1) Kinase assays were performed either in a 96 well capture-based ELISA assay or in 384 well Optiplates (Packard) using an Alphascreen Protein Tyrosine Kinase kit. In either case using approximately 15 μg of affinity purified PTK domain in the presence of 50 mM HEPES, pH 7.5, 10 mM MgCl2 150 mM NaCl and 10 μM-1 mM ATP. The biotinylated substrate biotin-EGPWLEEEEEAYGWMDF-NH2 (final concentration 5 μM) was used as substrate. In the ELISA assay tyrosine phosphorylation was quantitated following transfer to an avidin coated ELISA plate using peroxidase-linked anti-phospho-tyrosine antibody PY20. In the Alphascreen assay, Alphascreen phosphotyrosine acceptor beads followed by streptavidin donor beads were added under subdued light. The ELISA plates were read on a BMG Fluorostar, the Alphascreen plates were read on a Packard Fusion Alpha. Inhibitors were added to the assays fifteen minutes prior to the addition of ATP. Inhibitors were added in aqueous DMSO, with DMSO concentrations never exceeding 1%.
For orientation: An ELISA detects its analyte on a solid surface through an enzyme-linked reagent.

Another assay concerns the target kdr (Homo sapiens, UniProt P35968). In words: Kinase assay (ELISA or Alphascreen), kdr. Particulars: standard conditions, read-out: kdr inhibition of enzyme activity. How it is done:
as §1

Another assay addresses T2, human JAK2 (Homo sapiens, UniProt O60674).
T2 construct: The kinase domain of human JAK2 was amplified from U937mRNA; His tag (pFastBac HTc vector; nickel chelate purification) (N); made in house; host or cells: baculovirus; Sf9 for virus, High Five insect cells for production
Briefly: JAK kinase assay (ELISA or Alphascreen), Jak2. Particulars: standard conditions, read-out: Jak2 inhibition of enzyme activity.
Excerpt: The kinase domain of human JAK2 was amplified from U937mRNA using the polymerase chain reaction with the following primers: […]
JAK2 PCR products were cloned into the pFastBac HTc expression vector (Gibco) via the Sal I and Not I sites. The JAK2 plasmid was then transformed into competent DHL10Bac cells (Gibco), and the recombinant baculovirus produced prepared for transfection into Sf9 insect cells.
(§2) Baculovirus preparations from each of the JAK family members were infected into five litres of High Five cells (Invitrogen) grown in High Five serum free medium (Invitrogen) to a cell density of approximately 1-2×10^6 cells/ml. Cells are infected with virus at a MOI of 0.8-3.0. Cells were harvested and lysed. JAK kinase domains were purified by affinity chromatography on a Probond (Invitrogen) nickel chelate affinity column.
as §1

The target of a further assay is T3, human JAK3 (Homo sapiens, UniProt P52333).
T3 construct: The kinase domain of human JAK3 was amplified from U937mRNA; His tag (pFastBac HTb vector; nickel chelate purification) (N); made in house; host or cells: baculovirus; Sf9 for virus, High Five insect cells for production
In words: JAK kinase assay (ELISA or Alphascreen), Jak3. As to conditions: standard conditions, read-out: Jak3 inhibition of enzyme activity.
Excerpt: The kinase domain of human JAK3 was amplified from U937mRNA using the polymerase chain reaction with the following primers: […]
JAK3 PCR products were cloned into the pFastBac HTb expression vector (Gibco) via the Xho I and Kpn I sites. The JAK3 plasmid was then transformed into competent DH10Bac cells (Gibco), and the recombinant baculovirus produced prepared for transfection into Sf9 insect cells.
as §2, §1

Another assay concerns the target hck (Homo sapiens, UniProt P08631). In words: Kinase assay (ELISA or Alphascreen), hck. As to conditions: standard conditions, read-out: hck inhibition of enzyme activity. How it is done: as §1
In the next assay the target is tie2 (Homo sapiens, UniProt Q02763). Briefly: Kinase assay (ELISA or Alphascreen), tie2. Particulars: standard conditions, read-out: tie2 inhibition of enzyme activity. The protocol: as §1
The target of the next assay is T4, fms (Homo sapiens, UniProt P07333).
T4 sequence (P07333 582-910 limits assumed): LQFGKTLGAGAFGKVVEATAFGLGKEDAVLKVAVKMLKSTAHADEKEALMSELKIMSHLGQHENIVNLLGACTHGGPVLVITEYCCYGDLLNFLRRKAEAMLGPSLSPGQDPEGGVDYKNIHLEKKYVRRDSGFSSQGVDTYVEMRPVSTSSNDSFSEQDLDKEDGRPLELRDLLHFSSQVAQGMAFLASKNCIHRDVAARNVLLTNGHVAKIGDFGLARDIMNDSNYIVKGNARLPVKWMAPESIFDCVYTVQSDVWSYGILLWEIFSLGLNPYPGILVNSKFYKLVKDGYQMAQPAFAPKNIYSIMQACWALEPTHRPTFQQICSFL
In words: Kinase assay (ELISA or Alphascreen), fms. Particulars: standard conditions, read-out: fms inhibition of enzyme activity. How it is done: as §1

The inhibition is how much of the control response was suppressed.

T2 sequence (O60674 849-1124 limits assumed): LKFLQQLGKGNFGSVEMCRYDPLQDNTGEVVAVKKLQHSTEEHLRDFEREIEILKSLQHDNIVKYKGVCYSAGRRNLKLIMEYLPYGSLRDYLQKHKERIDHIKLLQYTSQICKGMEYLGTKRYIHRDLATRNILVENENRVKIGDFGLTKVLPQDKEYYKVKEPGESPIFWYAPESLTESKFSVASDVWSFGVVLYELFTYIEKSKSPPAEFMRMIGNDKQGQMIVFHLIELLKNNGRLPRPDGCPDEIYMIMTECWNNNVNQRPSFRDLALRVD
Chain of kdr (P35968 834-1162 limits assumed, species assumed): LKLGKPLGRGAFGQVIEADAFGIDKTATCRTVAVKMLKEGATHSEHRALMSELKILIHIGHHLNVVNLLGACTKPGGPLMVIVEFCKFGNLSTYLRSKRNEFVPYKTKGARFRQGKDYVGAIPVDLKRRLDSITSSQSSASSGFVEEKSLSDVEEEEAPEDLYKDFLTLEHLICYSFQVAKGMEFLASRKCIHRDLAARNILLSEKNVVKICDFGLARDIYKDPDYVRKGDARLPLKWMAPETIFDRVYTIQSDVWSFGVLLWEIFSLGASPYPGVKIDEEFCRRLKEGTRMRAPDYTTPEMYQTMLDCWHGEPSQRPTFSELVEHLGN
Chain of hck (P08631 262-515 limits assumed, species assumed): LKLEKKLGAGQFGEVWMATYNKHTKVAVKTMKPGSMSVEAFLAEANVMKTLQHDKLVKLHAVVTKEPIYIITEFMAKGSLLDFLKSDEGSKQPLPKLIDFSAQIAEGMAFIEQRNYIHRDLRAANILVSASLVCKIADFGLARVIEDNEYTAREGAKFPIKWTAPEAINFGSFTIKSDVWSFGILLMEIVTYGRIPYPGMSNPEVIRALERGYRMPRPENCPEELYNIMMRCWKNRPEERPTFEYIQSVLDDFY
Chain of tie2 (Q02763 824-1096 limits assumed, species assumed): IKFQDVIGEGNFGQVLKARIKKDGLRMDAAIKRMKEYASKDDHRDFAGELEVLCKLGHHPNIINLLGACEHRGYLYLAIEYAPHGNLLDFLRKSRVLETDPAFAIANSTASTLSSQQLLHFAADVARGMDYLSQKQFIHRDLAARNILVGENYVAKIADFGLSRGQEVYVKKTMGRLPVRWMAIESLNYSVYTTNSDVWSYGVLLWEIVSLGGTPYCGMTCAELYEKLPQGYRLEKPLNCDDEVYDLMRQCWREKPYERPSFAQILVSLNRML
T3 sequence (P52333 822-1111 limits assumed): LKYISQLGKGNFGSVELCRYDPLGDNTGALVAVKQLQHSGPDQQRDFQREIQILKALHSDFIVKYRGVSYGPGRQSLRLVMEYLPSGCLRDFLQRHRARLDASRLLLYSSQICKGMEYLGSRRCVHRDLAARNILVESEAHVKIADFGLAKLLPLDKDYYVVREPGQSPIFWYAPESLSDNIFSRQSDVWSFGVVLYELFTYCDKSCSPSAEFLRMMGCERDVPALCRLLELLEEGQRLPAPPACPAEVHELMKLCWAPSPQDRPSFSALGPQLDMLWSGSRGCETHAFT

`CO/C=C\N(C)CCCCNC(=O)c1ccc2ncn(-c3cncc(N[C@@H](C)c4ccccc4)n3)c2c1`: the inhibition at 20 µM on zap70, on kdr, on human JAK2 and at human JAK3 was not below 50% throughout.
As for `CC(Nc1cncc(-n2cnc3ccccc32)n1)c1ccncc1` (stereo not drawn), the inhibition at 20 µM at kdr was not below 50%; at human JAK2, less than 50%; on human JAK3, less than 50%.
Regarding `C[C@H](Nc1cncc(-n2cnc3cc(NC(=O)c4ccc(CN5CCN(C)CC5)cc4)ccc32)n1)c1ccccc1`, the inhibition at 20 µM at zap70 was not below 50%; at hck it was not below 50%; at human JAK2, less than 50%; on human JAK3, less than 50%.
As for `Nc1ccc(-c2cncc(-n3cnc4ccccc43)n2)cc1`, the figures for the inhibition at 20 µM on zap70, at human JAK2 and at human JAK3 were not below 50%, not below 50% and less than 50%, respectively.
On to `COc1cccc([C@H](C)Nc2cncc(-n3cnc4ccccc43)n2)c1`, for which the inhibition at 20 µM at kdr was not below 50%; on human JAK2, less than 50%; on human JAK3 it was less than 50%.
As for `CC(Nc1cncc(-n2cnc3ccc(CO)cc32)n1)c1ccc(F)cc1` (stereo not drawn), the figures for the inhibition at 20 µM on kdr, at human JAK2 and at human JAK3 were not below 50%, not below 50% and less than 50%, respectively.
On to `CC(Nc1cncc(-n2cnc3cc(CO)ccc32)n1)c1ccc(F)cc1` (stereo not drawn), for which the inhibition at 20 µM at kdr was not below 50%; on human JAK2, less than 50%; on human JAK3, less than 50%.
On to `CNCCN(C)Cc1ccc2ncn(-c3cncc(NC(C)c4ccc(F)cc4)n3)c2c1` (stereo not drawn), for which the figures for the inhibition at 20 µM on kdr, at human JAK2 and at human JAK3 were not below 50%, less than 50% and less than 50%, respectively.
Regarding `CC(Nc1cncc(N2CNc3cc(CN4CCN(C)CC4)ccc32)n1)c1ccc(F)cc1` (stereo not drawn), the values for the inhibition at 20 µM on kdr, on human JAK2 and on human JAK3 were not below 50%, less than 50% and less than 50%, respectively.
On to `CCN(CC)Cc1ccc2c(c1)ncn2-c1cncc(NC(C)c2ccc(F)cc2)n1` (stereo not drawn), for which the inhibition at 20 µM is not below 50% on kdr, less than 50% at human JAK2 and less than 50% on human JAK3.
`CC(Nc1cncc(-n2cnc3cc(CN(C)C)ccc32)n1)c1ccc(F)cc1` (stereo not drawn): the inhibition at 20 µM on kdr is not below 50%; on human JAK2, less than 50%; at human JAK3, less than 50%.
Turning to `CC(Nc1cncc(-n2cnc3cnccc32)n1)c1ccc(F)cc1` (stereo not drawn), the inhibition at 20 µM was not below 50% on kdr, not below 50% at human JAK2 and less than 50% on human JAK3.
Turning to `C[C@H](Nc1cncc(-n2cnc3ccc(CN4CCNCC4)cc32)n1)c1ccc(F)cc1`, the figures for the inhibition at 20 µM on tie2, at human JAK2 and on human JAK3 were not below 50%, less than 50% and not below 50%, respectively.
Consider `C[C@H](Nc1cncc(-n2cnc3ccc(CN4CCOCC4)cc32)n1)c1ccc(F)cc1`, for which the inhibition at 20 µM was not below 50% at hck, not below 50% on human JAK2 and less than 50% on human JAK3.
In the case of `C[C@H](Nc1cncc(-n2cnc3ccc(CN4CCCCC4)cc32)n1)c1ccc(F)cc1`, the inhibition at 20 µM on human JAK2 and on human JAK3 was not below 50% in each case.
Regarding `C[C@H](Nc1cncc(-n2cnc3ccc(CN4CCCC4)cc32)n1)c1ccc(F)cc1`, the inhibition at 20 µM was not below 50% on tie2, not below 50% at human JAK2 and less than 50% on human JAK3.
For the molecule `C[C@H](Nc1cncc(-n2cnc3ccc(CN(CCO)CCO)cc32)n1)c1ccc(F)cc1`, the results for the inhibition at 20 µM on hck, on human JAK2 and at human JAK3 were not below 50%, not below 50% and less than 50%, respectively.
For the molecule `N#Cc1ccc2ncn(-c3cncc(N[C@H]4CCc5ccccc54)n3)c2c1`, the inhibition at 20 µM at tie2, at human JAK2 and at human JAK3 was not below 50% each time.
As to `N#Cc1ccc2c(c1)ncn2-c1cncc(N[C@H]2CCc3ccccc32)n1`, the inhibition at 20 µM at tie2, on kdr, on human JAK2 and on human JAK3 was not below 50% each time.
For `CC(Nc1cncc(-n2cnc3cc(C#N)ccc32)n1)c1cccc2ccccc12` (stereo not drawn), the inhibition at 20 µM is not below 50% on fms, less than 50% at human JAK2 and less than 50% at human JAK3.
As to `C[C@H](Nc1cncc(-n2cnc3cc(-c4nn[nH]n4)ccc32)n1)c1ccc(F)cc1`, the inhibition at 20 µM is not below 50% at zap70, less than 50% on human JAK2 and less than 50% at human JAK3.
`C[C@H](Nc1cncc(-n2cnc3ccccc32)n1)c1ccc(F)cc1`: the inhibition at 20 µM at zap70, at human JAK2 and on human JAK3 was not below 50% each time.
For `CC(Nc1cncc(-n2cnc3cc(C#N)ccc32)n1)c1cccnc1` (stereo not drawn), the inhibition at 20 µM on hck, at human JAK2 and at human JAK3 was not below 50% each time.
For the molecule `CC(Nc1cncc(-n2cnc3ccc(C#N)cc32)n1)c1cccc(F)c1` (stereo not drawn), the inhibition at 20 µM at hck, on human JAK2 and on human JAK3 was not below 50% each time.
As for `CC(Nc1cncc(-n2cnc3ccc(C#N)cc32)n1)c1cc(F)cc(F)c1` (stereo not drawn), the inhibition at 20 µM on hck, on human JAK2 and on human JAK3 was not below 50% each time.
Regarding `CC(Nc1cncc(-n2cnc3cc(C#N)ccc32)n1)c1ccc(F)c(Cl)c1` (stereo not drawn), the inhibition at 20 µM on hck was not below 50%; on human JAK2 it was not below 50%; at human JAK3, less than 50%.
In the case of `CC[C@H](Nc1cncc(-n2cnc3cc(C#N)ccc32)n1)c1ccccc1`, the inhibition at 20 µM at tie2, at kdr, on human JAK2 and on human JAK3 was not below 50% each time.
In the case of `Cc1ccc([C@H](C)Nc2cncc(-n3cnc4ccc(C#N)cc43)n2)cc1`, the inhibition at 20 µM at zap70, at human JAK2 and at human JAK3 was not below 50% throughout.
For the molecule `C[C@@H](c1ccccc1)N(C)c1cncc(-n2cnc3ccc(C#N)cc32)n1`, the inhibition at 20 µM at kdr, at human JAK2 and at human JAK3 was not below 50% in each case.
Take `Cc1ncc(-n2cnc3cc(C#N)ccc32)nc1N[C@@H](C)c1ccccc1`: the inhibition at 20 µM at kdr, on human JAK2 and at human JAK3 was not below 50% in each case.
`COc1ccc2c(c1)CCC2Nc1cncc(-n2cnc3ccc(C#N)cc32)n1` (stereo not drawn): the inhibition at 20 µM was not below 50% at hck, less than 50% on human JAK2 and less than 50% at human JAK3.
In the case of `N#Cc1ccc2c(c1)ncn2-c1cncc(NC2CCc3cc(F)ccc32)n1` (stereo not drawn), the inhibition at 20 µM on tie2, at human JAK2 and at human JAK3 was not below 50% throughout.
As to `Cc1ncc(-n2cnc3ccc(C#N)cc32)nc1N[C@@H](C)c1cccc(F)c1`, the inhibition at 20 µM on tie2, on human JAK2 and at human JAK3 was not below 50% each time.

The record behind these values is patent publication US7737143B2, “Substituted pyrazines as kinase inhibitors” (YM Biosciences Australia Pty Ltd, priority 2003, dated 2010).
